Measurements as given in patent publication US20080221074A1, “Drug Screen and Treatment Method” (priority 2006, published 2008).

Legend:
[1] = test system: carrageenan-λ induced pleurisy; assay: carrageenan-λ induced lung (pleural cavity) inflammation; assay type: in vivo, CD1 male mice; details: oral gavage; 1 mg and 0.1 mg (17α-ethynyl triol), 40 mg/kg (17β-amino compound)
[2] = test system: human T lymphocytes (PBMC); assay: human mixed lymphocyte reaction (MLR); assay type: cell-based; details: 300 nM or 30 nM
[3] = molecular target: estrogen receptor-α (Homo sapiens, UniProt P03372); assay: interaction with sex hormone receptor; assay type: binding
estrogen receptor-α, sequence (P03372 whole entry): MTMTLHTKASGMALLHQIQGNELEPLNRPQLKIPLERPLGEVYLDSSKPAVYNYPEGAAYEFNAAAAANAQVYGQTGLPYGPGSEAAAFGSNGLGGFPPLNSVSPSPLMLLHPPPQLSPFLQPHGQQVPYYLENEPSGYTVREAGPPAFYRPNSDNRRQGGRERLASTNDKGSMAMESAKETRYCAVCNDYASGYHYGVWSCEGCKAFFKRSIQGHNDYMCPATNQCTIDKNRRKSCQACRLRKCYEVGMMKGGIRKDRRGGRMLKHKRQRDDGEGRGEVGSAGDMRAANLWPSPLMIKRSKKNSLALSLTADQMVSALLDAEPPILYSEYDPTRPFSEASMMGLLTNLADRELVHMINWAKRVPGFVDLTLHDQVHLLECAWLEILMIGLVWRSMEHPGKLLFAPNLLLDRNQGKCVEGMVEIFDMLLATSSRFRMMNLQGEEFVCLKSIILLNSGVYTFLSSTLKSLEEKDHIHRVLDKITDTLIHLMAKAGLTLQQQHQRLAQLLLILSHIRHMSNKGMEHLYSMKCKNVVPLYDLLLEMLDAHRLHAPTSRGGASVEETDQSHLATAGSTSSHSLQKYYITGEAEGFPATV

C#C[C@]1(O)CC[C@H]2[C@@H]3[C@@H](O)C=C4C[C@@H](O)CC[C@]4(C)[C@H]3CC[C@@]21C [17α-ethynylandrost-5-ene-3β,7β,17β-triol]
anti-inflammation activity compared to vehicle controls [1]: statistically significant anti-inflammation activity | immune suppression (inhibition of the MLR) [2]: not appreciably immune suppressive | interaction with estrogen receptor-α [3]: do not interact
